Experimental data as given in patent US20140080824A1, “STRUCTURE-GUIDED IDENTIFICATION OF BINDING INTERACTIONS OF HUMAN LAMININ RECEPTOR PRECURSOR WITH LAMININ AND IDENTIFICATION OF COMPOUNDS THAT AFFECT BINDING” (NEW YORK UNIVERSITY, priority 2010, published 2014).
Entries after “also recorded” stand apart in the source; their conditions may differ.

Assays:
[1] = tested on: HT1080 cells; test: HT1080 cell migration towards 10% FBS; type: cell-based, human
Protocol: In order to understand how this in vitro result translated into the cellular context, the ability of cells to migrate toward growth medium was tested in the presence and absence of the LamR inhibitors of the present invention. Since LamR on the cell surface serves the purpose of binding extracellular matrix laminin and facilitates migration and metastasis, it was expected that as inhibitors of cell surface LamR, the compounds of the present invention would reduce the migratory capability of cells. […] The migration of HT1080 cells was reduced to a level equivalent to the no migration control of no serum (No FBS).
HT1080 cells were tested for their ability to migrate toward normal growth media supplemented with 10% FBS or to 10 μg/mL purified laminin (Invitrogen) using the CytoSelect™ 24-well cell migration assay (8 μm, Colorimetric Format) (Cell Biolabs, Inc.). HT1080 cells were obtained from the American Type Culture Collection (Manassas, Va.). HT1080 cells were maintained in Dulbecco's modified Eagle's medium—[…] with 10% FBS. […] After agitation for 10 min at room temperature in extraction solution, 100 μl of each sample was transferred to an ELISA plate and read at 630 nm. […] Results were plotted using GraphPad Prism software, and statistical significance was calculated using a standard Student's t-test.

[2] = target: LamR (Homo sapiens, UniProt P08865); test: Small-molecule inhibition of recombinant LamR binding to laminin coated surface; conditions: for Reduction of LamR binding to laminin relative to the vehicle control (DMSO alone): purified recombinant LamR pre-incubated with small molecule, dose-dependent (FIG. 8a); for Effect on LamR binding to laminin (in words): purified recombinant LamR, FIG. 8a
Protocol: Compounds that interact with this described pocket, MRT (LRI) and MRF (LRI-F), display the properties of LamR inhibitors and are preferred for use in the methods of the present application. […] Binding was not reduced by several negative control compounds (Negative and DBP).
(§1) Wild type and mutant LamR binding affinity for laminin were tested in vitro. Clear polystyrene ELISA 96-well microplates, pre-coated with murine laminin (NEBiolabs), were blocked for 1 hour at 37° C. with blocking buffer (2% FCS, 1 mg/ml BSA, 0.1% sodium azide in PBS). Wells were incubated with increasing concentrations of purified wild type or mutant LamR for 1 h at 37° C. If a small molecule's effects on laminin binding were to be determined, the small molecule was pre-incubated with purified LamR for 15 minutes at 37° C. prior to addition of the mixture to the pre-coated plate. Each well was washed three times with wash buffer (0.5% Tween in PBS). Penta-His HRP conjugate (1:500) (Qiagen) was incubated for 2 h at RT and wells were washed three times with wash buffer. Substrate solution was added and incubated for approximately 10 minutes before reading the fluorescent absorbance detected at 490 nm on an ELISA plate reader (ELX800, Biotek Instruments, Inc.). Controls for buffer alone and binding of a nonspecific protein, A. fulgidus S2p, were also tested. Experiments were performed in triplicate. A binding curve and Kd were generated for wild type and mutant LamR using Prism software. The Kd was calculated using a one-site binding hyperbola and the equation Y=Bmax×X/(Kd+X). Each group was tested in triplicate and binding affinity was determined by normalizing to background fluorescence.

[3] = tested on: HT1080 cells; test: Growth inhibition of HT1080 cells; type: cell-based, human; conditions: FIG. 9b
Text: FIGS. 9a and 9b—Targeting LamR ribosomal and growth functions with inhibitors. (a) Inhibition of cellular translation in several cell lines by LamR inhibitor LRI-F (MRF/Face) by radiolabeled methionine pulse-chase. CHX, cycloheximide (b) Effects of treating HT1080 cells with LamR inhibitors. Dose dependent growth effects occur. *p-value <0.0001, n=3.
The analog compound LRI-F, an inhibitor of LamR, affected these functions.

[4] = tested on: 3T3, HT1080 and C8161 cell lines; test: Cellular translation by 35S-methionine pulse-chase radiolabeling; type: cell-based; conditions: 10 μM, FIG. 9a
Protocol: As expected for compounds with these properties, the LamR inhibitors of the invention attenuated the translation process.
To label newly synthesized proteins, cells were pulsed with 20 μCi/mL ^35S-methionine radiolabeled amino acid (PerkinElmer) in standard growth media lacking methionine (MP Biomedicals) for 2 hours at 37° C. Following the pulse, normal growth medium was added for the chase to restore normal conditions for 90 minutes. MPER mammalian protein extraction reagent (Pierce) was used to lyse cells and collect protein. To quantity the amount of newly synthesized protein containing the radioisotope, 20 μg total protein was precipitated with 10% TCA for 20 minutes at 4° C. Precipitant was vacuum filtered and washed on glass microfiber filters (Whatman) using 5% TCA followed by 95% ethanol. Filters were dried under a heat lamp prior to addition of 3 mL scintillation fluid to count radioisotope incorporation by events on a Beckman LS3801 scintillation counter (Beckman). For measuring the effects small molecules had on the translation, cells in culture were pre-treated for 18 hours with 1-10 μM of small molecule prior to pulse/chase. As a control for arresting translation, 50 μg/mL cycloheximide was added 3 hours prior to assessment.

[5] = tested on: HT1080 human fibrosarcoma cells; test: Experimental metastasis of luciferase expressing HT1080 cells in SCID mice; type: in vivo
Text: In addition, LamR has been described to be a critical factor of tumor metastasis. Clinical uses of the LamR inhibitors disclosed herein include their use as anti-metastatic anti-tumor agents. In a manner similar to that observed for the above-described in vitro cellular migration assays, compound LRI-F has such anti-metastatic properties in a murine model of experimental metastasis. […] Tumor cells were imaged via their expression of an exogenous firefly luciferase gene using the IVIS in vivo imaging system (Caliper/Xenogen).
Cells were washed once in PBS and re-suspended to a concentration of 1×10^6 cells/mL in PBS. 0.5 cc of the cell suspension (500,000 cells) was injected intravenously via the tail vein into SCID mice. Tumor implantation was monitored with IVIS Spectrum imaging technology (Caliper LS/Xenogen) following intra-peritoneal injection of luciferin substrate. Briefly, a camera is used to detect bioluminescent signal emitted from luciferase expressing cells. Mice are injected i.p. with 0.3 cc of 15 mg/mL beetle luciferin substrate (Promega) in PBS. Mice are anesthetized with isofluoran (2%)/oxygen mixture prior to imaging 5 minutes post substrate injection. Light is collected over a 1 minute imaging period at high binning to detect lung signal. Living Image Software version 3.0 (Caliper LS) is used to quantify and represent light signal.

[6] = tested on: laminin; test: In vitro binding affinity of wild type and mutant LamR for laminin (ELISA on laminin pre-coated plates); design: species or system murine; conditions: immobilized laminin
Protocol: as §1, with “Penta-His HRP conjugate (1:500) (Qiagen) was incubated for 2 h at RT and wells were washed three times with wash buffer.” left out, “Controls for buffer alone and binding of a nonspecific protein, A. fulgidus S2p, were also tested. Experiments were performed in triplicate. A binding curve and Kd were generated for wild type and mutant LamR using Prism software.” left out
In total, 14 mutants were analyzed individually (Table 1, FIG. 1a). […] The purity of the proteins was monitored by SDS ? […] Purified recombinant LamR220 (greater than 95% purity) was incubated in serial dilution on pre-coated laminin plates, and binding was detected by anti-His HRP. […]

C[C@@H]1C[C@@H]([C@H](O)CC2CC(=O)NC(=O)C2)C(=O)[C@@H](C)C1 [CHX, cycloheximide, reference compound]
Migration of HT1080 cells to 10% serum after small molecule treatment ([1]; cells pre-treated 2 hours with 5-10 μM small molecule, CHX 50 μg/mL 3 hours, FIG. 8b): did not result in loss of migratory ability

O=C(NCCO)c1ccc2nc3c4ccccc4c4ccccc4c3nc2c1 [MRT, N-(2-hydroxyethyl)dibenzo[a,c]phenazine-11-carboxamide]
Reduction of LamR binding to laminin relative to the vehicle control (DMSO alone) [2]: approximately 50% | Effect on LamR binding to laminin (in words) [2]: block recombinant LamR binding to purified laminin coated surface

c1ccc2nc3c4ccccc4c4ccccc4c3nc2c1 [DBP, dibenzophenazine, reference compound]
Effect on LamR binding to laminin (in words) [2]: not reduced

S=C(Nc1ccc2nc3c4ccccc4c4ccccc4c3nc2c1)N1CCOCC1 [MRF, N-dibenzo[a,c]phenazin-11-yl-4-morpholinecarbothioamide]
Growth effect in HT1080 cells [3]: growth inhibitory effects in HT1080 cells in a dose-dependent manner | Translation of newly synthesized proteins relative to untreated control [4]: dramatic reduction | Reduction of LamR binding to laminin relative to the vehicle control (DMSO alone) [2]: approximately 50% | Effect on LamR binding to laminin (in words) [2]: block recombinant LamR binding to purified laminin coated surface | Tumor signal from the lungs ([5]; 0.42 mg/20 g injected subcutaneously once 2 hours post-injection of cells, FIG. 10c-d): decreased tumor signal from the lungs | Ability of HT1080 cells to implant into the lungs after intravenous injection ([5]; cells pretreated with 10 μM before tail vein injection, SCID mice, FIG. 10a): marked decrease | Survival of mice compared to cells pretreated with DMSO vehicle ([5]; cells pretreated with 10 μM, FIG. 10b): prolonged survival

B1: A. fulgidus S2p: Archaeoglobus fulgidus S2 ribosomal protein, non-laminin binding ortholog of LamR (protein, UniProt O29132 1-197, looked up)
Small ribosomal subunit …: MMEKEYEYLVPPDDYLAAGVHIGTQIKTGDMKKFIFKVRQDGLYVLDIRKLDERIRVAAKFLSRYEPSKILLVAARQYAHKPVQMFSKVVGSDYIVGRFIPGTLTNPMLSEYREPEVVFVNDPAIDKQAVSEATAVGIPVVALCDSNNSSADVDLVIPTNNKGRRALAIVYWLLAREIAKIRGQDFTYSIEDFEAEL
Inhibition of cell migration towards 10% FBS by recombinant protein ([1]; recombinant protein 1 μM in lower reservoir, FIG. 3b): not inhibited | Laminin binding activity (in words) [6]: does not exhibit laminin-binding activity; also recorded: no binding
